“And” between values parts separate entries of the source, which are not always exact repeats. Identical values can stand only once.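 How tested: cells in 96-well plates exposed to compound for 48 hours at five concentrations. GI50 marks 50% less growth. At the TGI there is no net growth.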
What was measured:
Test in all cases: NCI-60 cell line screen, 48 h
NCI-H226 lung = system: NCI-H226 lung
UACC-62 melanoma = system: UACC-62 melanoma
SR leukemia = system: SR leukemia
RPMI-8226 leukemia = system: RPMI-8226 leukemia
MOLT-4 leukemia = system: MOLT-4 leukemia
OVCAR-5 ovarian = system: OVCAR-5 ovarian
BT-549 breast = system: BT-549 breast
SK-OV-3 ovarian = system: SK-OV-3 ovarian
T-47D breast = system: T-47D breast
MDA-MB-231 breast = system: MDA-MB-231 breast

SMILES	TGI (NCI-H226 lung) [µM]	TGI (UACC-62 melanoma) [µM]	TGI (SR leukemia) [µM]	TGI (RPMI-8226 leukemia) [µM]	TGI (MOLT-4 leukemia) [µM]	TGI (OVCAR-5 ovarian) [µM]	TGI (BT-549 breast) [µM]	TGI (SK-OV-3 ovarian) [µM]	TGI (T-47D breast) [µM]	TGI (MDA-MB-231 breast) [µM]	GI50 (OVCAR-5 ovarian)	GI50 (SK-OV-3 ovarian)	GI50 (T-47D breast) [µM]	GI50 (MDA-MB-231 breast) [µM]	GI50 (UACC-62 melanoma) [µM]	GI50 (SR leukemia) [µM]	GI50 (RPMI-8226 leukemia) [µM]	GI50 (MOLT-4 leukemia) [µM]	GI50 (BT-549 breast) [µM]
COc1ccc(CC[N+]2(C)COc3cc4oc(=O)cc(C)c4cc3C2)cc1OC (stereo not drawn)	> 100	> 100	> 100	> 100	18	> 100	> 100	> 100	> 100	> 100	–	–	–	–	–	–	–	–	–
CC(=O)O[C@H]1C(=O)[C@@]2(C)[C@H]([C@H](OC(=O)c3ccco3)[C@]3(O)C[C@H](OC(=O)[C@H](O)[C@@H](NC(=O)c4ccccc4)c4ccccc4)C(C)=C1C3(C)C)[C@]1(OC(C)=O)CO[C@@H]1C[C@@H]2O	> 5.05	> 25	> 7.67	0.131	> 25	> 25	> 25	10	> 25	> 25	–	–	–	–	–	–	–	–	–
CCOC(=O)c1cn(CC)c2ccc3c(c2c1=O)S(=O)(=O)C=C3	> 100	> 100	–	> 100	> 100	> 100	> 100	> 100	> 100	> 100	–	–	–	–	–	–	–	–	–
N#CC(NNC(=O)c1ccccc1O)c1c(O)ccc2ccccc12 (stereo not drawn)	13.4	9.32	40.8	43	37.8	21.1	> 54.8	40.7	18.7	27.7	–	–	–	–	–	–	–	–	–
C=CCNC1=C2C[C@@H](C)C[C@@H](OC)[C@H](OC(=O)CCN(C)C)[C@H](C)/C=C(\C)[C@@H](OC(N)=O)[C@H](OC)/C=C\C=C(/C)C(=O)NC(=CC1=O)C2=O	–	11.9	> 32.5	> 41.9	> 40.6	25.8	26.4	2.73	12.8	8.89	–	–	–	–	–	–	–	–	–
NC(Cc1ccccc1CP(=O)(O)O)C(=O)O (stereo not drawn)	–	> 100	> 100	> 100	> 100	> 100	> 100	> 100	> 100	> 100	–	–	–	–	–	–	–	–	–
CC[C@]1(Cc2ccc(OC)c(OC)c2)C=[N+]([O-])O[C@H](OC2CCCC2(c2ccccc2)c2ccccc2)[C@@H]1OC(=O)C(C)(C)C (stereo partly drawn)	12.5	17.4	> 100	–	> 100	> 39.9	> 44.5	> 86.1	7.04	> 33	–	–	–	–	–	–	–	–	–
Cc1cc2occ(S(=O)(=O)NC(=O)Nc3ccc(Cl)cc3)c(=O)c2c(=O)o1	> 100	> 100	–	> 100	> 100	> 100	> 100	> 100	> 100	> 100	–	–	–	–	–	–	–	–	–
Cc1ncc(CSC(=N)N)n1Cc1ccccc1	> 100	> 100	–	83.2	–	> 100	> 100	> 100	> 100	> 100	–	–	–	–	–	–	–	–	–
CCCCCCCc1ccc(-c2nnc(N=Nc3ccc(OCCCCC)cc3)s2)s1	> 100	> 100	–	> 100	> 100	> 100	> 100	> 100	> 100	> 100	–	–	–	–	–	–	–	–	–
Cc1ccc2nc(C(=O)O)c(=O)[nH]c2c1	> 100	> 100	> 100	> 100	> 100	> 100	> 100	> 100	> 100	> 100	–	–	–	–	–	–	–	–	–
c1ccc(-c2c(-c3[nH]c4ccccc4c3-c3ccccc3)[nH]c3ccccc23)cc1	25.6	21.6	7.84	11.9	13.3	23.4	15	21	8.44	13.8	–	–	–	–	–	–	–	–	–
CC(=O)N1c2cc(N=NN(C)C)ccc2NC(=O)CC1C (stereo not drawn)	> 100	> 100	–	> 100	> 100	> 100	> 100	> 100	> 100	> 100	–	–	–	–	–	–	–	–	–
O=C1C=C/C(=C/[C@H]2SSC=C[C@]23C=CC(=O)C3)C1	29.2	58.7	> 100	> 100	7.16	28.4	46.8	> 100	> 100	> 83.1	–	–	–	–	–	–	–	–	–
S=c1[nH]n2c(COc3cc(Cl)c(OCc4nnc5sc(=S)[nH]n45)cc3Cl)nnc2s1	> 100	83.9	> 100	> 100	> 100	> 100	> 100	> 100	> 100	> 100	–	–	–	–	–	–	–	–	–
COc1cc2c(cc1OC)C(=O)/C(=C/c1ccc(N(C)C)cc1)CC2	> 10	> 10	> 10	> 10	> 10	> 10	> 10	> 10	> 10	> 10	–	–	–	–	–	–	–	–	–
CCOC(=O)c1cc2c3c(cc(OC)c2[nH]1)N(C(=O)OCC)CC3	> 100	> 100	> 100	> 100	> 100	> 100	> 100	> 100	> 100	> 100	–	–	–	–	–	–	–	–	–
Cc1cc(=O)n2nc(CSc3nnc(Sc4cc(O)ccc4O)s3)sc2n1	> 100	> 100	> 100	61.4	59.5	> 100	> 100	> 100	73.6	97.4	–	–	–	–	–	–	–	–	–

SMILES	TGI (NCI-H226 lung) [µM]	TGI (UACC-62 melanoma) [µM]	TGI (SR leukemia) [µM]	TGI (RPMI-8226 leukemia) [µM]	TGI (MOLT-4 leukemia) [µM]	TGI (OVCAR-5 ovarian) [µM]	TGI (BT-549 breast) [µM]	TGI (SK-OV-3 ovarian) [µM]	TGI (T-47D breast) [µM]	TGI (MDA-MB-231 breast) [µM]	GI50 (OVCAR-5 ovarian)	GI50 (SK-OV-3 ovarian)	GI50 (T-47D breast) [µM]	GI50 (MDA-MB-231 breast) [µM]	GI50 (UACC-62 melanoma) [µM]	GI50 (SR leukemia) [µM]	GI50 (RPMI-8226 leukemia) [µM]	GI50 (MOLT-4 leukemia) [µM]	GI50 (BT-549 breast) [µM]
COc1cccc(CCCNC(=O)Cc2ccccc2CO)c1	> 100	> 100	> 100	–	> 100	> 100	> 100	> 100	> 100	> 100	–	–	–	–	–	–	–	–	–
CC(NNC(=O)c1ccncc1)c1ccc(Cl)cc1Cl (stereo not drawn)	> 100	> 100	> 100	> 100	> 100	> 100	> 100	> 100	> 100	> 100	–	–	–	–	–	–	–	–	–
Clc1cc2ncn(C3CCCCO3)c2cc1Cl (stereo not drawn)	80.9	> 100	> 100	> 100	> 100	> 100	84.5	> 100	> 100	> 100	–	–	–	–	–	–	–	–	–
Cc1ccc(NCCN(C)C)c2c(=O)c3cc(O)ccc3sc12	15.2	9.78	4.79	11.6	3.2	29.6	20.3	9.84	28.4	4.6	–	–	–	–	–	–	–	–	–
COc1cccc(N=NN2CCCC2)c1	> 100	> 100	> 100	> 100	> 100	> 100	> 100	> 100	> 100	> 100	–	–	–	–	–	–	–	–	–
COc1ccc(C23OCC(Cc4cc(OC)c(OC)cc42)C3CO)cc1OC (stereo not drawn)	> 100	> 100	> 100	> 100	> 100	> 100	> 100	> 100	> 100	> 100	–	–	–	–	–	–	–	–	–
CCCCCCCCCCCCC1N=C(N)NC2(CCCO2)C1C(=O)OC (stereo not drawn)	36.9	14.8	> 20.9	5.53	5.3	22.1	18.5	23.8	27.7	13.3	–	–	–	–	–	–	–	–	–
Cn1c(=O)c2c(nc(N/N=C3/SCC(=O)N3Cc3ccccc3)n2C)n(C)c1=O	> 100	> 100	–	66.3	–	> 100	> 100	> 100	> 100	> 100	–	–	–	–	–	–	–	–	–
C/C(Nc1ccc(Cl)cc1)=C1/CCOC1=O	> 100	> 100	> 100	60.3	> 76.5	> 100	> 100	> 100	> 100	> 100	–	–	–	–	–	–	–	–	–
CC[C@@]1(O)C(=O)OCc2c1cc1n(c2=O)Cc2c-1nc1ccccc1c2C=Nc1ccccc1N[C@@H]1c2cc3c(cc2[C@@H](c2cc(OC)c(O)c(OC)c2)[C@H]2C(=O)OC[C@@H]21)OCO3	3.05	13.1	–	> 50	–	–	> 50	15.2	0.163	> 49.8	0.847 µM and 0.281 µM	1.23 µM and 0.213 µM	0.00836	7.04	–	–	–	–	–
COc1ccc(/C=N/Nc2nnc3c(n2)c2ccccc2c2nn(-c4ccccc4Cl)nc23)cc1	> 100	> 100	–	> 100	> 100	> 100	> 100	> 100	> 100	> 100	–	–	–	–	–	–	–	–	–
CC[C@@]12CCC(=S)N(CCSc3ccccc3)[C@@H]1c1c(n(S(=O)(=O)c3ccc(OC)cc3)c3ccccc13)CC2	> 100	> 100	> 100	> 100	> 100	> 100	> 100	> 100	> 100	> 100	–	–	–	–	–	–	–	–	–
CCC1CN2CCc3c([nH]c4ccccc34)[C@@](C(=O)OC)(c3cc4c(cc3OC)N(C)C3C(O)(C(=O)OC)C(C(=O)OC)C5(CC)C=CCN6CCC43C65)C[C@@H](C2)[C@@H]1C(C)(C)C (stereo partly drawn)	0.902	> 10	> 6.41	> 4.43	8.12	> 10	> 8.68	> 10	> 10	3.42	–	–	–	–	–	–	–	–	–
COc1ccc(/C(CC2OC(=O)c3ccccc32)=N\NC(N)=O)cc1 (stereo not drawn)	> 100	> 100	> 100	> 100	> 100	> 100	> 100	> 100	> 100	> 100	–	–	–	–	–	–	–	–	–
CC(=O)[C@]1(O)Cc2c(O)c3c(c(O)c2[C@@H](OC2CC(N)C(O)C(C)O2)C1)C(=O)c1c(OCc2ccccc2)cccc1C3=O (stereo partly drawn)	5.74	5.63	0.468	> 100	–	5.12	21.2	21.2	8.11	3.45	–	–	–	–	–	–	–	–	–
Cc1cc(C)nc(NS(=O)(=O)c2ccc(Nc3c4ccccc4nc4ccc(C(=O)Nc5ccc(S(=O)(=O)N=C(N)N)cc5)cc34)cc2)n1	> 100	> 100	> 100	> 100	> 100	> 100	95.2	> 100	> 100	> 100	–	–	–	–	–	–	–	–	–
CCN(CC)CCNc1ccc([N+](=O)[O-])c2sc3cc(Cl)ccc3c(=O)c12	–	> 100	> 100	6.55	> 100	–	> 100	96.5	> 100	5.01	–	3.33 µM	29.8	1.74	3.11	4.7	2.32	2.34	17.7

From PubChem BioAssay (NCI)
